# Results taken from ChEMBL document CHEMBL4184323, “Structure-Guided Design, Synthesis, and Characterization of Next-Generation Meprin β Inhibitors” (J Med Chem, 2018).
# What was measured:
# Meprin A subunit beta = target: T1, Meprin A subunit beta (Homo sapiens, UniProt Q16820)
# T1 sequence (Q16820 whole entry): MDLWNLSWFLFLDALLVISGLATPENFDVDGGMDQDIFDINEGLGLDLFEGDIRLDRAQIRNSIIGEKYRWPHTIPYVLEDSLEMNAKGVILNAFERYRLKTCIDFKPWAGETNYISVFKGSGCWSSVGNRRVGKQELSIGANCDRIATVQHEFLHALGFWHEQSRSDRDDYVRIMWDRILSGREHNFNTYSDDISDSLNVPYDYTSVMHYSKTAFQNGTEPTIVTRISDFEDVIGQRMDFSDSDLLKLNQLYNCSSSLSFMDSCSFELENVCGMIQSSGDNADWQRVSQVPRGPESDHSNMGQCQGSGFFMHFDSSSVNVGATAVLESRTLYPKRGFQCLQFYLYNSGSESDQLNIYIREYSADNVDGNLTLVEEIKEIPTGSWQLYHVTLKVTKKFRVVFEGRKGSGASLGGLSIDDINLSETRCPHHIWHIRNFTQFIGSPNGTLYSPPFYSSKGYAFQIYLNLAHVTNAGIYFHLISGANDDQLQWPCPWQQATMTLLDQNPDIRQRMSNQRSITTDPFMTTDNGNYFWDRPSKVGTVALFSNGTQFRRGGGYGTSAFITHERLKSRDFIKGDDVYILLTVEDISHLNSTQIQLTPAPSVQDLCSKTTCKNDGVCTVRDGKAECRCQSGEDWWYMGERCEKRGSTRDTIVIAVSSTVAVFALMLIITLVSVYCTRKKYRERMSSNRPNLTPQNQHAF
# Description: Inhibition of recombinant human meprin beta expressed in yeast using Abz-YVAEAPK(Dnp)G-OH as substrate by fluorescence assay
# MMP2 = MMP2 (Homo sapiens, UniProt P08253); assay: Inhibition of human MMP2 assessed as residual activity using Mca-PLGL-(DapDnp)-AR-NH2 as substrate at 200 uM by fluorescence assay relative to control; settings: human MMP2 enzyme, probe Mca-PLGL-(DapDnp)-AR-NH2, read-out: Activity
# MMP9 = MMP9 (Homo sapiens, UniProt P14780); assay: Inhibition of human MMP9 assessed as residual activity using Mca-PLGL-(DapDnp)-AR-NH2 as substrate at 200 uM by fluorescence assay relative to control; settings: human MMP9 enzyme, probe Mca-PLGL-(DapDnp)-AR-NH2, read-out: Activity
# MMP13 = MMP13 (Homo sapiens, UniProt P45452); assay: Inhibition of human MMP13 assessed as residual activity using Mca-PLGL-(DapDnp)-AR-NH2 as substrate at 200 uM by fluorescence assay relative to control; settings: human MMP13 enzyme, probe Mca-PLGL-(DapDnp)-AR-NH2, read-out: Activity
# ADAM10 = target: T2, ADAM10 (Homo sapiens, UniProt O14672); assay: Inhibition of human ADAM10 assessed as residual activity using Abz-LANAVRSSSR-(DapDnp)-AR-NH2 as substrate at 200 uM by fluorescence assay relative to control; settings: human ADAM10 enzyme, probe Abz-LANAVRSSSR-(DapDnp)-AR-NH2, read-out: Activity
# T2 sequence (O14672 whole entry): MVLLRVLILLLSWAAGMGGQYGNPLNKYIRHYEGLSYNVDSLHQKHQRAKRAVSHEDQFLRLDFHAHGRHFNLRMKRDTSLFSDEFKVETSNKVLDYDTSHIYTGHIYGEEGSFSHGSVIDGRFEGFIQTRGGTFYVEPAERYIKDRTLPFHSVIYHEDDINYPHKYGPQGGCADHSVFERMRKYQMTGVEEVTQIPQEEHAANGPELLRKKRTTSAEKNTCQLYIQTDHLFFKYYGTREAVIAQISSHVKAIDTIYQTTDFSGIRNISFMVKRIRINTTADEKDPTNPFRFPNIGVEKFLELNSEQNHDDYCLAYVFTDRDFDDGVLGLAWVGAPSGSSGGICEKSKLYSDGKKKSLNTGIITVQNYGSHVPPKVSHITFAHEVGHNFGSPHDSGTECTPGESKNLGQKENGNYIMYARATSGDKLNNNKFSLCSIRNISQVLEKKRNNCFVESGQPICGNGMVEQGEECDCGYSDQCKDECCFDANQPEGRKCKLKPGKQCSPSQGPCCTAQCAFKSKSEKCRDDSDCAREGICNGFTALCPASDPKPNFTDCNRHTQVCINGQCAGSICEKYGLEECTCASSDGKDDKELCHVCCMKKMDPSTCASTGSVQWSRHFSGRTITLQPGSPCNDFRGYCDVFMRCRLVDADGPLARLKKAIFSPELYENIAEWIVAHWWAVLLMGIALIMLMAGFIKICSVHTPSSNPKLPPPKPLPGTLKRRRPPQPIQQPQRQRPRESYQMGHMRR
# ADAM17 = ADAM17 (Homo sapiens, UniProt P78536); assay: Inhibition of human ADAM17 assessed as residual activity using Abz-LANAVRSSSR-(DapDnp)-AR-NH2 as substrate at 200 uM by fluorescence assay relative to control; settings: human ADAM17 enzyme, probe Abz-LANAVRSSSR-(DapDnp)-AR-NH2, read-out: Activity
# CYP3A4 = CYP3A4 (Homo sapiens, UniProt P08684); assay: Inhibition of recombinant human CYP3A4 expressed in baculosomes assessed as residual activity at 25 uM using BOMCC substrate by fluorescence assay relative to control; type: ADME; settings: probe BOMCC, read-out: Activity
# CYP2C9 = CYP2C9 (Homo sapiens, UniProt P11712); assay: Inhibition of recombinant human CYP2C9 expressed in baculosomes assessed as residual activity at 25 uM using BOMCC substrate by fluorescence assay relative to control; type: ADME; settings: probe BOMCC, read-out: Activity
# SH-SY5Y [1] = assay: Cytotoxicity in human SH-SY5Y cells assessed as cell viability at 30 uM after 24 hrs by CytoTox-ONE-based assay relative to control; type: functional; settings: read-out: Activity
# HepG2 [2] = assay: Cytotoxicity in human HepG2 cells assessed as cell viability at 30 uM after 24 hrs by CytoTox-ONE-based assay relative to control; type: functional; settings: HepG2, 24 h, read-out: Activity
# BMP1 = target: T3, BMP1 (Homo sapiens, UniProt P13497); assay: Inhibition of human BMP1 expressed in Escherichia coli assessed as residual activity using Abz-YVADAPK(Dnp)G-OH as substrate at 200 uM by fluorescence assay relative to control; settings: probe Abz-YVADAPK(Dnp)G-OH, read-out: Activity
# T3 sequence (P13497 whole entry): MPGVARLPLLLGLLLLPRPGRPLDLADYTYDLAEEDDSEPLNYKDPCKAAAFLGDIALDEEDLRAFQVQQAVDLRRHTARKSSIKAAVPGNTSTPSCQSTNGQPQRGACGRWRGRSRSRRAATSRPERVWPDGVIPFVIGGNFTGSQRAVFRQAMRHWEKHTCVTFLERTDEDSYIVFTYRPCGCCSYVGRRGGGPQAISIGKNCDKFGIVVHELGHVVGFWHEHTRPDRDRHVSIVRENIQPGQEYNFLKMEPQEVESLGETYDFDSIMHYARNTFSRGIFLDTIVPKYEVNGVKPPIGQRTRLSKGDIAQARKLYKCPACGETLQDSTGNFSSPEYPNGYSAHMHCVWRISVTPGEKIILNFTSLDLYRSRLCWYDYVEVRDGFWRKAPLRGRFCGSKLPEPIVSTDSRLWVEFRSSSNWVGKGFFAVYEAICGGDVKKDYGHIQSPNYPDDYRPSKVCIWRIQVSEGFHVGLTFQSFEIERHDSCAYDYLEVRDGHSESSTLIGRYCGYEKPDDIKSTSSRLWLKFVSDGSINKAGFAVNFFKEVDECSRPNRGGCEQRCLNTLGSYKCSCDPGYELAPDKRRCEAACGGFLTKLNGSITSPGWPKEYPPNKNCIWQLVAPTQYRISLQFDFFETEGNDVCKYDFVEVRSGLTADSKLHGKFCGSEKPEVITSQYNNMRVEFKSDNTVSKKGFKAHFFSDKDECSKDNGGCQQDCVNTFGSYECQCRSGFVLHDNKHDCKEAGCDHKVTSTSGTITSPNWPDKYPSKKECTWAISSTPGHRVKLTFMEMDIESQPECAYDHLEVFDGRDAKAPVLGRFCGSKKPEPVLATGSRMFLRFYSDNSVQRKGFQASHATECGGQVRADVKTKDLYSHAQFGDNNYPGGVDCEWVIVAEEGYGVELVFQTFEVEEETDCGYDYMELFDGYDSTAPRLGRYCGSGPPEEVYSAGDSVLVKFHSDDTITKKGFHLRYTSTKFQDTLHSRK
# [3] = Drug absorption in Sprague-Dawley rat at 10 mg/kg, po by LC-MS analysis; type: ADME, organism-based; settings: in vivo, read-out: Fabs
# [4] = Cmax in Sprague-Dawley rat at 10 mg/kg, po by LC-MS analysis; type: ADME, organism-based; parameters: dose 10 mg/kg, route oral; settings: in vivo
# [5] = Tmax in Sprague-Dawley rat at 10 mg/kg, po by LC-MS analysis; type: ADME, organism-based; settings: in vivo
# Rattus norvegicus = assay: Volume of distribution in Sprague-Dawley rat at 10 mg/kg, po by LC-MS analysis; type: ADME, organism-based; settings: in vivo
# [6] = Drug absorption in Sprague-Dawley rat at 10 mg/kg, ip by LC-MS analysis; type: ADME, organism-based; settings: in vivo, read-out: Fabs
# [7] = Cmax in Sprague-Dawley rat at 10 mg/kg, ip by LC-MS analysis; type: ADME, organism-based; parameters: dose 10 mg/kg, route intraperitoneal; settings: in vivo
# [8] = Tmax in Sprague-Dawley rat at 10 mg/kg, ip by LC-MS analysis; type: ADME, organism-based; settings: in vivo
# [9] = Half life in Sprague-Dawley rat at 6 mg/kg, iv by LC-MS analysis; type: ADME, organism-based; settings: in vivo
# [10] = Clearance in Sprague-Dawley rat at 6 mg/kg, iv by LC-MS analysis; type: ADME, organism-based; settings: in vivo
# [11] = Volume of distribution at steady state in Sprague-Dawley rat at 6 mg/kg, iv by LC-MS analysis; type: ADME, organism-based; settings: in vivo, read-out: Vdss
# SH-SY5Y [12] = assay: Cytotoxicity in human SH-SY5Y cells assessed as cell viability at 100 uM after 24 hrs by CytoTox-ONE-based assay relative to control; type: functional; settings: read-out: Activity
# HepG2 [13] = assay: Cytotoxicity in human HepG2 cells assessed as cell viability at 100 uM after 24 hrs by CytoTox-ONE-based assay relative to control; type: functional; settings: HepG2, 24 h, read-out: Activity
# Homo sapiens = organism: Homo sapiens; assay: Selectivity ratio of IC50 for recombinant human meprin alpha expressed in insect cells to IC50 for recombinant human meprin beta expressed in yeast
# Sequence of MMP2 (P08253 whole entry): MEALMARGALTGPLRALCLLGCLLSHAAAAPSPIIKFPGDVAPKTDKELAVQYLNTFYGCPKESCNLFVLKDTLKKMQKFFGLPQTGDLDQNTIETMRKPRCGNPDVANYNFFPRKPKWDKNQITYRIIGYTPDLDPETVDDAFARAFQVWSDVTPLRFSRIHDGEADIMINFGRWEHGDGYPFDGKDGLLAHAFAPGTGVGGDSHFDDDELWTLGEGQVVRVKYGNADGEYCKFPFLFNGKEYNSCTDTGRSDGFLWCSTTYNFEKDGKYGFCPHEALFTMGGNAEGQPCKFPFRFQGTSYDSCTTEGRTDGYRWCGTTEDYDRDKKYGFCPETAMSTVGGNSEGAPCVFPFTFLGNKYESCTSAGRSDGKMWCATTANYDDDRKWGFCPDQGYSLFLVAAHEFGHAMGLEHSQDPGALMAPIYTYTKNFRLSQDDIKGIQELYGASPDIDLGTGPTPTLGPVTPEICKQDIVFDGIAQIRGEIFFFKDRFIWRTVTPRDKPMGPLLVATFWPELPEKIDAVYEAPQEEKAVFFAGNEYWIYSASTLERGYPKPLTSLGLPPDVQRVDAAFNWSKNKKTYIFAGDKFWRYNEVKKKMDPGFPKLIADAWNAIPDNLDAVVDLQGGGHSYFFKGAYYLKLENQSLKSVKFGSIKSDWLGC
# Sequence of CYP3A4 (P08684 whole entry): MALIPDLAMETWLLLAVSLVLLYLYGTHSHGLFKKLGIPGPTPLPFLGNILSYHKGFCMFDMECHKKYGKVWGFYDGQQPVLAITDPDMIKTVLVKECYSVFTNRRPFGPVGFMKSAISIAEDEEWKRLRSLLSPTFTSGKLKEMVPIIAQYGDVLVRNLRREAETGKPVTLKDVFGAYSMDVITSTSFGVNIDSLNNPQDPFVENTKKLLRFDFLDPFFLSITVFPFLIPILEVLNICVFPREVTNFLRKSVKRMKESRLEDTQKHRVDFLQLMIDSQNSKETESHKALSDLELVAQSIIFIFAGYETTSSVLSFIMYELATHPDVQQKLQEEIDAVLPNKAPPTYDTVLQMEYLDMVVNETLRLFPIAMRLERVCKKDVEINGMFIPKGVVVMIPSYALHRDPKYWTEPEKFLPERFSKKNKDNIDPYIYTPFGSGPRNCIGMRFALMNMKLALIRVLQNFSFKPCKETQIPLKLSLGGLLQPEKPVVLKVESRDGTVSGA
# Sequence of MMP9 (P14780 whole entry): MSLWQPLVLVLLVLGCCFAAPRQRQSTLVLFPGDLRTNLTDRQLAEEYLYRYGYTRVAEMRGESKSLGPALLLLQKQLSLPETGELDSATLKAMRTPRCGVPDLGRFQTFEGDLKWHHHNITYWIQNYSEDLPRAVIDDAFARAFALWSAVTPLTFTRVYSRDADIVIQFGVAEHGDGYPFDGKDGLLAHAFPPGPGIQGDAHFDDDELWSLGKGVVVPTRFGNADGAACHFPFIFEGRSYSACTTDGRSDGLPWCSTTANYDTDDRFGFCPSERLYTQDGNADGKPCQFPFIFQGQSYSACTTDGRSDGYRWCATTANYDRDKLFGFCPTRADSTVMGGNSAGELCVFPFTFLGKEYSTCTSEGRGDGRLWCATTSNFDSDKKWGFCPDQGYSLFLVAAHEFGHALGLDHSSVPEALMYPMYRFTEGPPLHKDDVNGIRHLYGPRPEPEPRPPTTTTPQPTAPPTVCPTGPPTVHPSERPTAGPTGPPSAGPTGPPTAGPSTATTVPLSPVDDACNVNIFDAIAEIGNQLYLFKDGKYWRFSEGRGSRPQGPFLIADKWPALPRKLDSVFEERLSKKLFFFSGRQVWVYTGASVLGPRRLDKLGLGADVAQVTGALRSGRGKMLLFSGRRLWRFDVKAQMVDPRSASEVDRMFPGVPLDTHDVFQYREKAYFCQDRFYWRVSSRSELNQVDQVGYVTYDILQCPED
# Sequence of ADAM17 (P78536 whole entry): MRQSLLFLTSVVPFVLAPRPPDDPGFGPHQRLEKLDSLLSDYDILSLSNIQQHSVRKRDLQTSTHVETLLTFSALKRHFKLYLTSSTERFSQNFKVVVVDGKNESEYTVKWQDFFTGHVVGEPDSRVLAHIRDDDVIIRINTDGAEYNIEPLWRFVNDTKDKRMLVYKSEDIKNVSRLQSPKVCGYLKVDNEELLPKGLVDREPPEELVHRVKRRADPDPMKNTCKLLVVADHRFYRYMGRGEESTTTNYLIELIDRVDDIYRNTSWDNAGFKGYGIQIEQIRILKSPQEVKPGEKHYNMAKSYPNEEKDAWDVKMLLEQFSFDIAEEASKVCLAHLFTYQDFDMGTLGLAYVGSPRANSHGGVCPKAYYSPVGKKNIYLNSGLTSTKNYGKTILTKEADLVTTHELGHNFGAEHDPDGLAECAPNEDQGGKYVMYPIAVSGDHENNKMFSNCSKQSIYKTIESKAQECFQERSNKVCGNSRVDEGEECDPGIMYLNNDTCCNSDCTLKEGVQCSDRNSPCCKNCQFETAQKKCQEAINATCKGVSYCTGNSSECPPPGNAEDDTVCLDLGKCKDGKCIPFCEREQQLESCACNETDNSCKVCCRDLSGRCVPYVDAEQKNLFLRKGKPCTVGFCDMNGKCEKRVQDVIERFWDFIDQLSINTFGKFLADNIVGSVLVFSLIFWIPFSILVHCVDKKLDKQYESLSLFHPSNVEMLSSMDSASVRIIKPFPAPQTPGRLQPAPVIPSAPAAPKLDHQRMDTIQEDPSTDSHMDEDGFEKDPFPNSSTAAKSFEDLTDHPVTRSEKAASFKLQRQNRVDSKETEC
# Sequence of CYP2C9 (P11712 whole entry): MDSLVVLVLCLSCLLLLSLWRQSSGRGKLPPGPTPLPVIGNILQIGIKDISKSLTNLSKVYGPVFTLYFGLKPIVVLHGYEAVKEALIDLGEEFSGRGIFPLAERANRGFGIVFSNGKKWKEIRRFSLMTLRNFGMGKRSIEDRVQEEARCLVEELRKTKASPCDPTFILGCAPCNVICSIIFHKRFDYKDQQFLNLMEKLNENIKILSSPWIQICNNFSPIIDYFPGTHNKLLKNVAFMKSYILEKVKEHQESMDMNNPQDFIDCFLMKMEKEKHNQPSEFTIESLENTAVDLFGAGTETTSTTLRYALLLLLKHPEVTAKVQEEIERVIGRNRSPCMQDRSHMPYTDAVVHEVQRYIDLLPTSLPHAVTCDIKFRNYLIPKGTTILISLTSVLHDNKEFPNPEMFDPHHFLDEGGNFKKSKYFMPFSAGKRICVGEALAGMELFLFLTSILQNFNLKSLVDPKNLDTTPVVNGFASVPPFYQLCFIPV
Compound,IC50 (Meprin A subunit beta),activity at 200 µM (MMP2),activity at 200 µM (MMP9),activity at 200 µM (MMP13),activity at 200 µM (ADAM10),activity at 200 µM (ADAM17),activity at 25 µM (CYP3A4),activity at 25 µM (CYP2C9),other results
COc1c(Cl)ccc(CN(CC(=O)NO)Cc2ccc(Cl)c(OC)c2F)c1F,12800 nM,–,–,–,–,–,–,–,–
O=C(CN(Cc1ccc(Cl)cc1)Cc1cccc(C(=O)O)c1)NO,–,69%,88%,78%,95%,57%,79%,77%,viability at 30 µM (SH-SY5Y [1]): 97%; viability at 30 µM (HepG2 [2]): 104%
COc1ccc(S(=O)(=O)N(CC(=O)NO)Cc2cccc(C(=O)O)c2)cc1,–,< 1%,2%,< 1%,< 1%,< 1%,–,–,–
O=C(CN(Cc1ccc(Cl)c(O)c1F)Cc1ccc(Cl)c(O)c1F)NO,–,41%,81%,93%,97%,82%,76%,68%,activity at 200 µM (BMP1): 50%; Fa [3]: 9%; Cmax [4]: 810 ng/mL; Tmax [5]: 15 min; Vd (Rattus norvegicus): 0.058 L; Fa [6]: 84%; Cmax [7]: 10900 ng/mL; Tmax [8]: 10.2 min; half-life [9]: 114 min; clearance [10]: 21 mL/min/kg; Vd [11]: 0.33 L/kg; viability at 30 µM (SH-SY5Y [1]): 93%; viability at 30 µM (HepG2 [2]): 101%
O=C(CN(Cc1ccc(F)c(O)c1F)Cc1ccc(F)c(O)c1F)NO,–,67%,94%,102%,99%,92%,87%,101%,activity at 200 µM (BMP1): 34%; Fa [3]: 5%; Cmax [4]: 1080 ng/mL; Tmax [5]: 7.8 min; Vd (Rattus norvegicus): 0.045 L; half-life [9]: 66 min; clearance [10]: 21.8 mL/min/kg; Vd [11]: 0.41 L/kg; viability at 30 µM (SH-SY5Y [1]): 92%; viability at 30 µM (HepG2 [2]): 99%
COc1ccc(CN(CC(=O)NO)Cc2cccc(C(=O)O)c2)cc1,77 nM,68%,85%,94%,87%,60%,80%,102%,viability at 100 µM (SH-SY5Y [12]): 87%; viability at 100 µM (HepG2 [13]): 100%; Ratio IC50 (Homo sapiens): 40

# Second part, led by results:
IC50 (Meprin A subunit beta),Compound,activity at 200 µM (MMP2),activity at 200 µM (MMP9),activity at 200 µM (MMP13),activity at 200 µM (ADAM10),activity at 200 µM (ADAM17),activity at 25 µM (CYP3A4),activity at 25 µM (CYP2C9),other results
347 nM,COc1cc(F)c(CN(CC(=O)NO)Cc2cccc(C(=O)O)c2)c(F)c1,–,–,–,–,–,–,–,–
1280 nM,O=C(CN(Cc1ccc(-c2ccccc2)cc1)Cc1cccc(C(=O)O)c1)NO,–,–,–,–,–,–,–,–
386 nM,Cc1ccc(CN(CC(=O)NO)Cc2cccc(C(=O)O)c2)cc1,–,–,–,–,–,–,–,–
2250 nM,CCCOc1cccc(CN(CC(=O)NO)Cc2cccc(C(=O)O)c2)c1,–,–,–,–,–,–,–,–
524 nM,O=C(CN(Cc1ccc(C(=O)O)cc1)Cc1ccc(C(=O)O)cc1)NO,–,–,–,–,–,–,–,–
375 nM,COc1ccc(CN(CC(=O)NO)Cc2cccc(C(=O)O)c2)cc1F,–,–,–,–,–,–,–,–
